Tested on: trypomastigote form of T. cruzi (strain Y)
Assay: Trypanosomicidal activity in trypomastigotes
Format: cell-based
Conditions: Trypanosoma cruzi, 24 h, 4 °C, infected mouse blood
Procedure: The experiment was performed on infected, three-month-old, Balb/c mice. Seven days post-infection, when in a parasitemia peak (>1.0 × 10^6 parasites /mL), the blood of the living (anesthetized) mouse was extracted from the aorta or eye (1 mL per mouse), and citrate was used as an anticoagulant, then seeded in a 96-well plate with a final volume of 100 μL (90 μL of blood + 10 μL from a stock solution of the compound containing 10% DMSO). It was left at 4 °C, 24 h, then 5 μL of each sample was used to count trypomastigotes using a 40x optical microscope (MO) (50-field method). The plate fill was performed by homogenizing the well before filling each well (very slowly), and it was performed in triplicate or quadruplicate to obtain the IC50 values of each compound.

For `O=C(/C=C/C=C/c1ccco1)/C=C/C=C/c1ccco1` [Compound 793], the IC50 was 25 ± 5 µM.

Source: paper PMC9863266, “Preclinical Studies and Drug Combination of Low-Cost Molecules for Chagas Disease” (Pharmaceuticals, 2022)
